Molecules are shown by their SMILES. Bounds are passed on as bounds.

By melting point is commonly meant the temperature, or range, at which the solid turns liquid.

`NC(=S)N1CCCCc2cccnc21` had a melting point of 121 °C.

Turning to `CN(C)CCN(C(N)=O)c1cnccn1`, the melting point lay in the range of 105 to 108 °C.

`COc1ccc(N2C(=O)c3ccc(Cl)cc3C2CC(=O)N2CCN(C)CC2)cc1` (stereo unspecified) displayed a melting point of 169 to 171 °C.

As to `CSC(SC)C1(O)O[C@H](COCc2ccccc2)[C@@H](OCc2ccccc2)[C@H](OCc2ccccc2)[C@H]1OCc1ccccc1` (stereo partly specified), the melting point fell in the range of 96 to 97 °C.

`Cc1c(F)c(NCc2ccccc2)cc2oc(=O)[nH]c12` gave a melting point of 204 to 206 °C.

`Cc1c(C(=O)Nc2ccc(N3CCC(O)CC3)c(C#N)c2)c2cc(F)ccc2n1CC(=O)O` came in with a melting point greater than 250 °C.

`COc1cc(C)c(-c2c(C)cncc2C)c(C)c1` came in with a melting point of 87 to 88 °C.

`Cc1coc(NC(=O)C2=C(O)c3c(c4ccccc4n3C)S(=O)(=O)N2C)n1` yielded a melting point of 128 °C.

`CCOC(=O)c1c(C(F)F)nc(C(F)(F)F)c(C(=O)OCC)c1Br` yielded a melting point of 37 to 43 °C.

For `CC12CCC3c4ccc(O)cc4C(O)C(Sc4ccc(Br)cc4)C3C1CCC2O` (stereo unspecified), the melting point lay within 140 to 145 °C.

Consider `Fc1ccc2c(c1)CC(CN1CCC(c3noc4cc(F)ccc34)CC1)O2` (racemic), for which the melting point lay in the range of 129 to 130 °C.

For the compound `O=C(NN=C(c1ccc(Cl)cc1)c1ccc(OC(F)(F)C(Cl)Cl)cc1)OCC(Cl)(Cl)Cl`, the melting point was 97 to 103 °C.

Regarding `C=CCC1(C(=O)NCC)c2ccccc2Oc2ccccc21`, the melting point lay in the range of 111 to 112 °C.

Take `COC(=O)N1CCc2ccccc2CC1`: the melting point is 53 to 54 °C.

On to `CCOC(=O)c1cc2cc(F)c(F)cc2nc1Cl`, for which the melting point was 108 °C.

Consider `CCOC(=O)/C=C/c1sc(SC)c2c1CCCC2=O`, for which the melting point fell in the range of 104 to 105 °C.

`CCOc1ccc2c(c1)n(-c1ccccc1Cl)c(=O)n2Cc1ccc(NC(=O)N(CC)CC)cc1OC`: the melting point worked out at 150 °C.

`Cn1ccnc1NC(=O)c1c(C(F)(F)F)nc2c(C(F)(F)F)cccc2c1O` had a melting point of 259 °C.

In the case of `N#Cc1nn(-c2c(Cl)cc(C(F)(F)F)cc2Cl)c(N)c1-c1ccsc1`, the melting point lay in the range of 210 to 212 °C.

Compound `Fc1ccc(N2CCN(CCCOc3ccc(-c4nnco4)cc3)CC2)cc1` displayed a melting point of 157 to 158 °C.

`CCNC(=O)c1c(C)cccc1[Si](C)(C)C` displayed a melting point of 64 to 66 °C.

As for `Cc1nn(-c2cccc(N)c2)c2c1C(=O)CC(C)(C)C2`, the melting point lay within 131 to 132 °C.

`Cc1c(Br)c2c(c3c1C(c1ccc(C(C)C)cc1)CO3)CCCC2` (stereo unspecified): the melting point fell in the range of 108 to 109 °C.

On to `CC(CC(O)=S)(c1ccc(OCc2ccc3ccccc3n2)cc1)c1ccc(OCc2ccc3ccccc3n2)cc1`, for which the melting point lay in the range of 92 to 94 °C.

`CCCCC(CC)COC(=O)CSc1cc2c(cc1SCC(=O)OCC(CC)CCCC)C(=O)c1cc3ccccc3cc1C2=O` (stereo unspecified): the melting point is 75 to 80 °C.

As to `CCOC(=O)C1(NC(=O)OCc2ccccc2)CC(=O)NC1=O` (stereo unspecified), the melting point lay in the range of 105 to 106 °C.

`CC(=O)C(=NO)c1ccc(OC[Si](C)(C)c2ccc(F)cc2)cc1` came in with a melting point of 115 to 117 °C.

As to `OCc1cn(Cc2ccc(OCc3ccccc3)cc2)nc1OCc1ccc(OCc2ccccc2)cc1`, the melting point is 128 to 129 °C.

In turn, `O=C(O)Cc1ccc(NC(=O)C(COc2ccccc2)NS(=O)(=O)c2ccc(I)cc2)cc1` (racemic) returned a melting point of 224 to 225 °C.

Turning to `CN1CCN(C(=O)c2ccc(-c3cnc4c(c3)N(Cc3ccccc3)CCN4)cc2)CC1`, the melting point lay within 180 to 181 °C.

In turn, `O=C(O)C1(C(=O)O)CCOCCOCCOCCOCC1` yielded a melting point of 107 to 111 °C.

`Cc1cc(C)c([N+](=O)[O-])c(C)c1-c1n[nH]c2c(C#N)c(C(C)(C)C)nn12` showed a melting point of 265 to 266 °C.

For the compound `CCOC(=O)c1ccc(CCN2CC=C(c3c[nH]c(-c4ccc(F)cc4)c3-c3ccncc3)CC2)cc1`, the melting point fell in the range of 217 to 218 °C.

`COC(=O)C(Cl)=Cc1cc(-n2ncc(C(F)(F)F)c(C)c2=O)ccc1Cl` registered a melting point of 80 to 81 °C.

Take `O=C(O)N1C=CC=NC=C1`: the melting point was 238 to 240 °C.

Compound `Cc1cnc2c(NC(=O)c3ccccc3C(F)(F)F)cccc2c1N1CCN(C)C1=O` came in with a melting point of 182 to 191 °C.

`Fc1ccc(-c2c[nH]c3ccccc23)cc1` yielded a melting point of 98 to 100 °C.

Compound `O=C(O)c1ccc(OCc2ccccc2)c(OCc2ccccc2)c1` came in with a melting point of 184 to 185 °C.

In turn, `CC(=O)N1C(=O)NC(=O)CC1C` (stereo unspecified) registered a melting point of 107 to 109 °C.

Take `CCN(CC)CCn1cc(C(=O)NCc2ccc(Cl)cc2)c(=O)c2cc(C#CCO)ccc21`: the melting point lay within 145 to 148 °C.

With `COc1ccnc(C(=O)N[C@H]2COC[C@H](OCc3ccccc3)[C@@H](OCc3ccccc3)[C@H](C)OC2=O)c1O`, the melting point was in the range of 144 to 146 °C.

Turning to `CCC(CC)N(O)C(=O)Nc1cccc(Oc2ccccc2)c1`, the melting point amounted to 111 °C.

The compound `CC1(C)CC(Nc2nc(NC3CC(C)(C)N(O)C(C)(C)C3)nc(N(C3CC(C)(C)N(O)C(C)(C)C3)C3CC(C)(C)N(O)C(C)(C)C3)n2)CC(C)(C)N1O` yielded a melting point of 243 to 246 °C.

For `N#Cc1cccnc1N1CCN(CCCCc2ccc(-c3csc(N)n3)cc2)CC1`, the melting point fell in the range of 155 to 162 °C.

Consider `COC1N=C(c2ccccc2)c2cc(Cl)ccc2-n2nc(C(N)=O)nc21` (stereo unspecified), for which the melting point lay in the range of 264 to 267 °C.

The compound `CCNC(=O)c1cccc(NCC(=O)NCCc2ccc(OC)c(OC)c2)c1` had a melting point of 99 to 101 °C.

The compound `c1ccc(-c2cnccn2)cc1` came in with a melting point of 69 to 70 °C.

Turning to `CCOc1cc(-c2cc(C(F)F)n3ncc(-c4nc(-c5ccc(N)nc5)no4)c3n2)ccc1C(F)(F)F`, the melting point is 250 °C.

`N#Cc1nn(-c2c(Cl)cc(C(F)(F)F)cc2Cl)c(Br)c1O` came in with a melting point of 145 to 151 °C.

As to `COC(=O)c1ccc(-c2nn(Cc3ccccc3)c3ccccc23)o1`, the melting point is 137 to 138 °C.

Consider `COc1cc(CCc2ccccc2)c(OC)c2c1C(=O)c1ccccc1C2=O`, for which the melting point was determined as 100 °C.

Regarding `CCOCc1nc2c(N)nc3cc(OCc4nc(-c5cccs5)no4)ccc3c2n1CC(C)(C)O`, the melting point was 173 to 175 °C.

In turn, `O=C(O)c1ccc2cc(-c3cc4ccccc4o3)ccn2c1=O` returned a melting point greater than 250 °C.

In turn, `CCOC(=O)C=Cc1ccc(O)c(C(F)(F)F)c1C(F)(F)F` had a melting point of 138 to 140 °C.

`CC1(C)OC(=O)Nc2c(O)cc(-c3cc(F)cc(C#N)c3)cc21` showed a melting point of 197 to 198 °C.

`NS(=O)(=O)c1cccc(NC(=O)c2cnn3c(C(F)F)cc(-c4ccc(Cl)c(Cl)c4)nc23)c1` gave a melting point of 306 °C.

Compound `CC(C)(C)Nc1nc(NC(C)(C)C)nc(N2CC3CCC(CC3)C2)n1` had a melting point of 217 to 222 °C.

For the compound `CCc1c(C(=O)OC(C)C)ncc2[nH]c3ccc4sc(NC(C)=O)nc4c3c12`, the melting point was 208 to 210 °C.

On to `NC(=O)N(O)CCNC(=O)CCc1ccccc1`, for which the melting point lay in the range of 165 to 167 °C.

`N=C(NO)c1ccccc1-n1cnc2cnc3ccc(-c4ccccc4)cc3c21` returned a melting point of 249 to 251 °C.

In the case of `CN(C)C1=NCc2ccc(Cl)cc2O1`, the melting point was 118 to 120 °C.

Values taken from a melting point compilation (Tetko et al.; mined from patent text by program, amines drawn as free bases though some values may be those of a salt).
